In patent publication US9532990B2 (Zhejiang DTRM Biopharma Co. Ltd., priority 2014, dated 2017):
Where two headings read alike, the source gives them in different places.

How the values were obtained:
BTK wild type = BTK wild type (Homo sapiens (Human), UniProt Q06187); experiment: Inhibition assay of BTK kinase activity (HTRF); format: biochemical
Method: Inhibition Assay of BTK Kinase Activity:
The enzyme reaction mixture of BTK wild type standard HTRF assay contained 1 nM BTK wild type, 1 μM biotin-TK1 peptide, and 30 μM ATP in a buffer. The enzyme reaction were carried out at room temperature for 60 minutes. […] The plates were incubated at room temperature for 60 minutes and then read in the Envision plate reader.

TMD-8 lymphoma xenograft = TMD-8 lymphoma xenograft SCID mouse model; format: in vivo; settings: BID, 14 days (FIG. 1); for Antitumor effect: Oral
Method: Compounds (Compounds 45 and others) alone and its combinations were evaluated against tumor growth in xenograft models in female CB-17 SCID mice. The TMD-8, DoHH2, WSU-DLCL2 tumor cells were maintained in vitro as a suspension culture in RPMI-1640 medium supplemented with 10% heat inactivated fetal calf serum at 37° C. in an atmosphere of 5% CO2 in air. The tumor cells were routinely subcultured twice weekly. The cells growing in an exponential growth phase were harvested and counted for tumor inoculation. Each mouse was inoculated subcutaneously at the right flank with the tumor cells (10×10^6) in 0.2 ml of PBS with Matrigel (1:1) for tumor development. The treatments were started after the average tumor size reached approximately 100-200 mm^3. Each group consisted of 6-10 tumor-bearing mice. The testing article (vehicle, compound or combination) was orally administrated to the mice according to the predetermined doses for 14-days or 21-days. Animal body weight and tumor volume were measured every 2-or 3-days throughout the treatment.

[1] = rats, 40 mg/kg, U.S. FDA NDA 205552 pharmacological review, cited from earlier work
[2] = dogs, 24 mg/kg, U.S. FDA NDA 205552 pharmacological review, cited from earlier work

BTK wild type, sequence (Q06187 whole entry): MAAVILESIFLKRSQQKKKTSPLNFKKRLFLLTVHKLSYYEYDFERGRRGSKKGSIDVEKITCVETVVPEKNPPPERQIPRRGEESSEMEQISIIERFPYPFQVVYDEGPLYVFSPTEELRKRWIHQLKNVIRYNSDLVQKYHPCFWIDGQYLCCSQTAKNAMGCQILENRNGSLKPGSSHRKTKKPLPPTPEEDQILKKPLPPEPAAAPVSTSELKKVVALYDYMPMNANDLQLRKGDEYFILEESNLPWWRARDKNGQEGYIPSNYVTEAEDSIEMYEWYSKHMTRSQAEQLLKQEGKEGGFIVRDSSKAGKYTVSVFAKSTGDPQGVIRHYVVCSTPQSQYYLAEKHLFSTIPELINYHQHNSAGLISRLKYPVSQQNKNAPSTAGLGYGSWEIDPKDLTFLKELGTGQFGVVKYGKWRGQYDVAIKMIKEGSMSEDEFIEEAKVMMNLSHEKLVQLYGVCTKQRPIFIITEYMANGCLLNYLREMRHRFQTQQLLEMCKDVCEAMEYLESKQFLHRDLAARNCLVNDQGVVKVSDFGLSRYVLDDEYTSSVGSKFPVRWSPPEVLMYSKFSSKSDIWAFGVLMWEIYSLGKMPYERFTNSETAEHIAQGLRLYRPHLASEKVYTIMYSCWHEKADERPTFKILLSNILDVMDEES

| IC50 (BTK wild type; all compounds with IC50 of less 10 nM, read-out: IC50 (BTK)) [nM] | IC50 (BTK wild type; read-out: BTK IC50) [nM] | Compound | Antitumor effect (TMD-8 lymphoma xenograft; 10 mg/kg) [%] | Antitumor effect (TMD-8 lymphoma xenograft; 30 mg/kg) [%] | TMD-8 tumor growth suppression (TMD-8 lymphoma xenograft; multiple doses, p.o.) | AUC (area under the curve) ([1]; female) [ng·h/mL] | AUC (area under the curve) ([1]; male) | AUC ([2]; female) | AUC ([2]; male) |
| --- | --- | --- | --- | --- | --- | --- | --- | --- | --- |
| < 10 | 2 | C=CC(=O)N1CCC[C@@H](n2nc(-c3ccc(Oc4c(F)c(F)cc(F)c4F)cc3F)c3c(N)ncnc32)C1 [Compound 33, 1-((R)-3-(4-amino-3-(2-fluoro-4-(2,3,5,6-tetrafluorophenoxy)phenyl)-1H-pyrazolo[3,4-d]pyrimidin-1-yl)piperidin-1-yl)prop-2-en-1-one] | 56 | 77 | significant TMD-8 tumor growth suppressions were dose-depended |  |  |  |  |
|  |  | C=CC(=O)N1CCC[C@@H](n2nc(-c3ccc(Oc4ccccc4)cc3)c3c(N)ncnc32)C1 [ibrutinib] |  |  |  | 3300 | 1,000 h*ng/mL | 1,850 h*ng/mL | 1,780 h*ng/mL |
